According to patent US20130096067A1, “DROSOPHILA TUMOR STEM CELL MODEL AND USES THEREOF” (priority 2011, published 2013):
Like-named read-outs stand apart in the source and are kept apart here.

Test system: Raf-1^gof intestinal tumors
[1] = screen of 480 ICCB compounds in vials, compounds fed to flies with one-day old Raf-1^gof tumors, assessed three days later, esg-Gal4 luciferase
[2] = screen of 480 ICCB compounds in vials, compounds fed to flies with one-day old Raf-1^gof tumors, assessed three days later, esg-Gal4 luciferase, averaged from multiple wells
[3] = ICCB compounds fed in vials to flies with one-day old Raf-1^gof tumors, assessed three days later
[4] = ICCB compounds fed in vials to flies with one-day old Raf-1^gof tumors, assessed three days later, averaged from multiple wells
Further: test concentration or dose not given here.

CC(=O)[C@H]1[C@H](C#N)C[C@H]2[C@@H]3CC=C4C[C@@H](O)CC[C@]4(C)[C@H]3CC[C@@]21C [Pregnenolone 16alpha carbonitrile]
Log2 (fold) (luciferase activity, log2 of the fold difference relative to DMSO controls) [1]: −0.492 | Fold (luciferase activity, fold difference relative to DMSO controls) [2]: 0.711

C=C[C@H]1C[N@@]2CC[C@H]1C[C@@H]2[C@@H](O)c1ccnc2ccc(OC)cc12 [QUINIDINE]
Log2 (fold) (luciferase activity, log2 of the fold difference relative to DMSO controls) [1]: −0.351 | Fold (luciferase activity, fold difference relative to DMSO controls) [2]: 0.784

C=C[C@H]1C[N@@]2CC[C@H]1C[C@H]2[C@H](O)c1ccnc2ccc(OC)cc12 [QUININE]
Log2 (fold) of luciferase activity relative to DMSO controls [3]: −0.201 | Fold (luciferase activity relative to DMSO controls) [4]: 0.870 fold

CC[N+](CC)(CC)CC(=O)Nc1c(C)cccc1C [QX-314]
Log2 (fold) of luciferase activity relative to DMSO controls [3]: 0.146 | Fold (luciferase activity relative to DMSO controls) [4]: 1.107 fold

CC1=C(/C=C/C(C)=C/C=C/C(C)=C/C(=O)O)C(C)(C)CCC1 [RETINOIC ACID, ALL TRANS]
Log2 (fold) of luciferase activity relative to DMSO controls [3]: −0.162 | Fold (luciferase activity relative to DMSO controls) [4]: 0.894 fold

CCCCCC(O)c1cccc(OCc2ccc3ccccc3n2)c1 (stereo not drawn) [REV-5901]
Log2 (fold) (luciferase activity, log2 of the fold difference relative to DMSO controls) [1]: −0.282 | Fold (luciferase activity, fold difference relative to DMSO controls) [2]: 0.822

N#C/C(=C\c1cc(Cl)cc(Cl)c1)c1cccnc1 [RG-14620]
Log2 (fold) (luciferase activity, log2 of the fold difference relative to DMSO controls) [1]: −0.483 | Fold (luciferase activity, fold difference relative to DMSO controls) [2]: 0.715

O=C(NCCCCCCNC(=O)ON=C1CCCCC1)ON=C1CCCCC1 [RHC-80267]
Log2 (fold) (luciferase activity, log2 of the fold difference relative to DMSO controls) [1]: −0.279 | Fold (luciferase activity, fold difference relative to DMSO controls) [2]: 0.824

CCCCCCCCCCCCCCCC(=O)C1=C(O)C(CO)OC1=O (stereo not drawn) [RK-682]
Log2 (fold) (luciferase activity, log2 of the fold difference relative to DMSO controls) [1]: −0.492 | Fold (luciferase activity, fold difference relative to DMSO controls) [2]: 0.711

CC(=O)OCOC(c1cc([N+](=O)[O-])ccc1Oc1ccc(Br)cc1)P(=O)(OCOC(C)=O)OCOC(C)=O (stereo not drawn) [RWJ-60475-(AM)3]
Log2 (fold) (luciferase activity, log2 of the fold difference relative to DMSO controls) [1]: −0.217 | Fold (luciferase activity, fold difference relative to DMSO controls) [2]: 0.861

COc1ccc(C2CNC(=O)C2)cc1OC1CCCC1 (stereo not drawn) [Rolipram]
Log2 (fold) (luciferase activity, log2 of the fold difference relative to DMSO controls) [1]: −0.414 | Fold (luciferase activity, fold difference relative to DMSO controls) [2]: 0.750

CC(=O)c1c(O)c(C)c(O)c(Cc2c(O)c3c(c(C(=O)/C=C/c4ccccc4)c2O)OC(C)(C)C=C3)c1O [Rottlerin]
Log2 (fold) (luciferase activity, log2 of the fold difference relative to DMSO controls) [1]: −0.865 | Fold (luciferase activity, fold difference relative to DMSO controls) [2]: 0.549

Oc1ccc(-c2nc(-c3ccc(F)cc3)c(-c3ccncc3)[nH]2)cc1 [SB 202190]
Log2 (fold) (luciferase activity, log2 of the fold difference relative to DMSO controls) [1]: −0.222 | Fold (luciferase activity, fold difference relative to DMSO controls) [2]: 0.857

C[S+]([O-])c1ccc(-c2nc(-c3ccc(F)cc3)c(-c3ccncc3)[nH]2)cc1 (stereo not drawn) [SB 203580]
Fold (luciferase activity relative to DMSO controls) (in vivo): 1.036 fold | Log2 (fold) of luciferase activity relative to DMSO controls (in vivo): 0.051

NC(=O)c1ccc(-c2nc(-c3ccccn3)c(-c3ccc4c(c3)OCO4)[nH]2)cc1 [SB-431542]
Log2 (fold) of luciferase activity relative to DMSO controls [3]: 0.068 | Fold (luciferase activity relative to DMSO controls) [4]: 1.048 fold

N#Cc1cc2c(OCC(O)CN3CCN(C(c4ccccc4)c4ccccc4)CC3)cccc2[nH]1 (stereo not drawn) [SDZ-201106]
Fold (luciferase activity, fold difference relative to DMSO controls) (in vivo): 0.804 | Log2 (fold) (luciferase activity, log2 of the fold difference relative to DMSO controls) (in vivo): −0.315

COc1ccc(CCCOC(Cn2ccnc2)c2ccc(OC)cc2)cc1 (stereo not drawn) [SKF-96365]
Log2 (fold) of luciferase activity relative to DMSO controls [3]: 0.134 | Fold (luciferase activity relative to DMSO controls) [4]: 1.097 fold

Oc1c2ccccc2c2c3c(cccc13)N=N2 [SP-600125]
Log2 (fold) of luciferase activity relative to DMSO controls [3]: −0.100 | Fold (luciferase activity relative to DMSO controls) [4]: 0.933 fold

CCCCCCCCCCCCC/C=C/[C@@H](O)[C@@H](N)CO [SPHINGOSINE]
Log2 (fold) of luciferase activity relative to DMSO controls [3]: −0.030 | Fold (luciferase activity relative to DMSO controls) [4]: 0.980 fold

Nc1ncnc2c1ncn2C1CCCO1 (stereo not drawn) [SQ22536]
Log2 (fold) (luciferase activity, log2 of the fold difference relative to DMSO controls) [1]: −0.270 | Fold (luciferase activity, fold difference relative to DMSO controls) [2]: 0.829

O=C(O)CCC/C=C\C[C@@H]1[C@H](CNNC(=O)Nc2ccccc2)[C@H]2CC[C@@H]1O2 [SQ-29548]
Log2 (fold) (luciferase activity, log2 of the fold difference relative to DMSO controls) [1]: −0.606 | Fold (luciferase activity, fold difference relative to DMSO controls) [2]: 0.657

CN(C)c1ccc(/C=C2\C(=O)Nc3ccccc32)cc1 [SU-4312]
Log2 (fold) of luciferase activity relative to DMSO controls [3]: 0.118 | Fold (luciferase activity relative to DMSO controls) [4]: 1.085 fold

CC(C)=CC[C@@H](O)C1=CC(=O)c2c(O)ccc(O)c2C1=O [Shikonin]
Log2 (fold) (luciferase activity, log2 of the fold difference relative to DMSO controls) [1]: −0.795 | Fold (luciferase activity, fold difference relative to DMSO controls) [2]: 0.576

O=C1CCc2c(ccc3ccccc23)O1 [Splitomycin]
Log2 (fold) (luciferase activity, log2 of the fold difference relative to DMSO controls) [1]: −0.241 | Fold (luciferase activity, fold difference relative to DMSO controls) [2]: 0.846

CCCCCc1cc(O)c2c(c1)OC(C)(C)C1CCC(C(=O)O)=CC21 (stereo not drawn) [TETRAHYDROCANNABINOL-7-OIC ACID]
Log2 (fold) (luciferase activity, log2 of the fold difference relative to DMSO controls) [1]: −0.240 | Fold (luciferase activity, fold difference relative to DMSO controls) [2]: 0.847

COc1ccc2cc1Oc1ccc(cc1)C[C@H]1c3cc(c(OC)cc3CCN1C)Oc1c(OC)c(OC)cc3c1[C@H](C2)N(C)CC3 [TETRANDRINE]
Log2 (fold) (luciferase activity, log2 of the fold difference relative to DMSO controls) [1]: −0.318 | Fold (luciferase activity, fold difference relative to DMSO controls) [2]: 0.802

CCN(CC)CCCCCCCCOC(=O)c1cc(OC)c(OC)c(OC)c1 [TMB-8]
Log2 (fold) (luciferase activity, log2 of the fold difference relative to DMSO controls) [1]: −0.325 | Fold (luciferase activity, fold difference relative to DMSO controls) [2]: 0.798

Cc1ccc(S(=O)(=O)NC(=O)NN2CCCCCC2)cc1 [TOLAZAMIDE]
Log2 (fold) (luciferase activity, log2 of the fold difference relative to DMSO controls) [1]: −0.365 | Fold (luciferase activity, fold difference relative to DMSO controls) [2]: 0.776

CCCCNC(=O)NS(=O)(=O)c1ccc(C)cc1 [TOLBUTAMIDE]
Log2 (fold) (luciferase activity, log2 of the fold difference relative to DMSO controls) [1]: −0.494 | Fold (luciferase activity, fold difference relative to DMSO controls) [2]: 0.710

c1ccc(CN(CCN(Cc2ccccn2)Cc2ccccn2)Cc2ccccn2)nc1 [TPEN]
Log2 (fold) (luciferase activity, log2 of the fold difference relative to DMSO controls) [1]: −0.717 | Fold (luciferase activity, fold difference relative to DMSO controls) [2]: 0.608

FC(F)(F)c1ccccc1-n1ccnc1 [TRIM]
Log2 (fold) of luciferase activity relative to DMSO controls [3]: −0.160 | Fold (luciferase activity relative to DMSO controls) [4]: 0.895 fold

C/C(=C\c1ccc(C(=O)O)cc1)c1ccc2c(c1)C(C)(C)CCC2(C)C [TTNPB]
Log2 (fold) of luciferase activity relative to DMSO controls [3]: −0.114 | Fold (luciferase activity relative to DMSO controls) [4]: 0.924 fold

Cc1coc2c1C(=O)C(=O)c1c-2ccc2c1CCCC2(C)C [Tanshinone IIA]
Log2 (fold) (luciferase activity, log2 of the fold difference relative to DMSO controls) [1]: −0.570 | Fold (luciferase activity, fold difference relative to DMSO controls) [2]: 0.674

Cl.NC(=S)NCCCC(N)C(=O)O [Thiocitrulline [L-Thiocitrulline HCl]]
Log2 (fold) of luciferase activity relative to DMSO controls [3]: −0.170 | Fold (luciferase activity relative to DMSO controls) [4]: 0.889 fold

O=C(O)CNC(=O)C(CS)Cc1ccccc1 (stereo not drawn) [Thiorphan]
Log2 (fold) (luciferase activity, log2 of the fold difference relative to DMSO controls) [1]: −0.673 | Fold (luciferase activity, fold difference relative to DMSO controls) [2]: 0.627

Cc1ccc(S(=O)(=O)N[C@@H](Cc2ccccc2)C(=O)CCl)cc1 [Tosyl-Phe-CMK (TPCK)]
Log2 (fold) (luciferase activity, log2 of the fold difference relative to DMSO controls) [1]: −0.233 | Fold (luciferase activity, fold difference relative to DMSO controls) [2]: 0.851
